Literature values as cited in patent US8912192B2, “Extended release preparation” (Taisho Pharmaceutical Co., Ltd, priority 2010, dated 2014).
Structures can show the parent of a compound that is named as a salt. Where two headings read alike, the source gives them in different places.

How the values were obtained:
[1] = preparation containing a pharmaceutically acceptable salt of compound A, oral, dogs, fasting state
[2] = pharmaceutically acceptable salt of compound A
[3] = test system: phosphodiesterase III enzymes; conditions: compound A or a pharmaceutically acceptable salt thereof

Compound: O=c1[nH]nc(OCCCc2ccc(Cl)cc2)c(NCc2cccnc2)c1Br [compound A, 4-bromo-6-[3-(4-chlorophenyl)propoxy]-5-(3-pyridylmethylamino)-3(2H)-pyridazinone]
- bioavailability [1]: about 10%
- solubility in water ([2]; around neutral pH range similar to enteric environment): quite poorly soluble
- solubility in water ([2]; pH range of about 4.0 or higher): decreases its solubility in water
- inhibitory effect against phosphodiesterase III enzymes [3]: has an inhibitory effect against phosphodiesterase III enzymes
- half-life period in blood plasma (blood plasma): about 1.5 hours

Compound: CC(N)C(O)c1ccccc1 (stereo not drawn) [phenylpropanolamine hydrochloride, reference compound]
- half-life period (in vivo): 4 h
